Laboratory results from patent US5405857A, “3-substituted 1,2,3,4,-oxatriazole-5-imine compounds, a process for the preparation thereof and a pharmaceutical preparation containing said compounds” (A/S GEA Farmaceutisk Fabrik, priority 1991, dated 1995).
Structures can show the parent of a compound that is named as a salt. Where two headings read alike, the source gives them in different places. Values belong to the compound of their own block, whether it stands above or below them.

Key:
[1] = molecular target: T1, soluble guanylate cyclase (Homo sapiens, UniProt Q02153); test: Stimulation of guanylate cyclase from blood platelets (RIA); format: biochemical; conditions: 37° C.
T1 construct: The guanylate cyclase activity in the supernatant after incubation with and without the test substance; endogenous in cells; host or cells: human blood platelets, supernatant of homogenate
T1 sequence (Q02153 1-619): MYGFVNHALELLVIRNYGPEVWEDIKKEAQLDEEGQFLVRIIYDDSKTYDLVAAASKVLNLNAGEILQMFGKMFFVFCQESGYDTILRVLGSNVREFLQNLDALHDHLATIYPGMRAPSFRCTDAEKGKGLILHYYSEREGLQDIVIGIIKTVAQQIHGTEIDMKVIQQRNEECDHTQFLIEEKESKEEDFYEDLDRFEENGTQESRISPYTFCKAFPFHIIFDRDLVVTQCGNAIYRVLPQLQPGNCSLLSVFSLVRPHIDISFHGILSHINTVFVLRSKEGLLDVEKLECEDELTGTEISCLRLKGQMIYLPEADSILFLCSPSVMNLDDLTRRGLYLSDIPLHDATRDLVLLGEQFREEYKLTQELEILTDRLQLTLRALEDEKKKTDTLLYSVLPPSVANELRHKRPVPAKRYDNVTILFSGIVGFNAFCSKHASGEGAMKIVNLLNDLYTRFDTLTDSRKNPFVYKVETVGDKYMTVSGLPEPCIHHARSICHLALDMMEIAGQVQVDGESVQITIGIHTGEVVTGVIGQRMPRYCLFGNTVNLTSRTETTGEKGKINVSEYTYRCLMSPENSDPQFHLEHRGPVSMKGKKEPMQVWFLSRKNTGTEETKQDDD
T1 sequence (Q02108 1-690 partner): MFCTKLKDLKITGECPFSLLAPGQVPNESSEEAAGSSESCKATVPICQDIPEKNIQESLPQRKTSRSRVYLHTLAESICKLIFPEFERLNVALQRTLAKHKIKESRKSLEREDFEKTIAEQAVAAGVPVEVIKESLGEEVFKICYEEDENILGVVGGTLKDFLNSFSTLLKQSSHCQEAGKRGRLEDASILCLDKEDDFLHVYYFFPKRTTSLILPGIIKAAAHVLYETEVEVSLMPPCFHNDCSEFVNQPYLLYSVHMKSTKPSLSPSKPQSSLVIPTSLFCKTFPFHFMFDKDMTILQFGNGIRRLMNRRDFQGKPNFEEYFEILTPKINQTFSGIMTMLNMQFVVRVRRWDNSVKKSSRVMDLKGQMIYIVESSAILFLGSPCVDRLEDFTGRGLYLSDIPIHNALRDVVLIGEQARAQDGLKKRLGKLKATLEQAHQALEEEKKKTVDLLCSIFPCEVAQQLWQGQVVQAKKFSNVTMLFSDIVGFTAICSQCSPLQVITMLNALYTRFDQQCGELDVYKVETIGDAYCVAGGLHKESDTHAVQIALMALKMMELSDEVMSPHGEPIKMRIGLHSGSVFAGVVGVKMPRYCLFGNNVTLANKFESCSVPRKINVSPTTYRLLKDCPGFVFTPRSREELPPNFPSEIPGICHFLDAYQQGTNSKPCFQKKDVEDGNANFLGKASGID

blood platelets = test: Inhibition of blood platelet aggregation (aggregometer, ADP); format: cell-based, human (healthy testees); conditions: for IC50: Platelet, 0.05 h, read-out: IC50 (Inhibition of blood platelet aggregation)
Procedure: Compounds according to the invention were tested for their inhibition of clumping together (aggregation) of blood platelets (thrombocytes), which is the first phase of the formation of blood clots (thrombi). Such an inhibition may prevent the formation of blood clots and inhibit the development of new thrombi after a diagnosed thrombus.
Citrate stabilized ( 0.38% of sodium citrate, final concentration) venous blood from healthy testees is used, who have not used medicine for at least 8 days. Slight centrifugation (160×g for 10 minutes) results in PRP (blood plasma rich in platelets) which is pipetted. PPP (blood plasma poor in platelets) is obtained by an intense centrifugation (3000×g for 10 minutes) of the remaining blood. The light transmission is measured by the aggregometer (CHRONOLOG). PRP allows nearly no light transmitaaion, while PPP allows complete transmission of light. The PRP is placed in the aggregometer at 37° C. while being stirred by a magnet. Addition of a pro-aggregating substance causes the PRP to aggregate gradually and an increasing light transmission takes place at the same time. At complete aggregation a light transmission corresponding to PPP is obtained. Adnosine diphosphate (ADP) is used as pro-aggregating substance, said substance representing a basic biochemical mechanism for aggregation of blood platelets. The test substances are incubated for 3 minutes in PRP placed in the aggregometer at 37° C. during magnetic stirring. A predetermined positively aggregating dosage of adenosine diphosphate (ADP) (2 to 4 μM) is then added. […] A so-called IC50 -value (that is the concentration inhibiting the aggregation by 50% relative to the control aggregation) is calculated for each test substance by linear regression analysis (log concentration μM as constant ad abscissa and % inhibition as variable ad ordinate). The following known reference substances have been used: nitroglycerine (GTN), sodium nitroprusside (NNP) and SIN-1 (the active metabolite of molsidomine).

PAI-1 = test: Inhibition of plasminogen activator inhibitor (PAI-1) from blood platelets (fibrinolytic activity); format: cell-based, human; conditions: 50 μM, 60 minutes; for % Inhibition of PAI-1 activity: compared to control; for PAI-1 activity: human PRP, control 3.24
Procedure: Compounds according to the invention were tested for their inhibition of plasminogen activator inhibitor (PAI). An established thrombus comprises aggregated platelets cohered by fibrin. The organism has a fibrinolyric system for maintaining normal physiological conditions. Endogenous plasminogen is activated to plasmin (fibrinolysin, that is a proteolytic enzyme decomposing fibrin) by means of a tissue plasminogen activator (t-PA). The platelets include the enzyme PAI-1 inhibiting the activation of plasminogen to plasmin, and thus also the decomposition of fibrin.
A general stimulation of the fibrinolytic system can cause serious hemostatic side effects (haemorrhages). A specific inhibition of PAI-1 induces an increased fibrinolysis in areas with many platelets, which is exactly the case in thrombi. As a result a thrombolytic effect is obtained.
Human PRP prepared by slight centrifugation as previously mentioned is used, but at a low temperature (4° C.). By incubation of PRP (1 ml in a plastic tube) during a slight shaking at 37° C. the PAI-1 activity is liberated, said PAI-1 activity being measured spectrophotometrically by means of a two-step procedure using commercial kits (Spectrolyse™/fibrin kit from BIOPOOL, Sweden).
The PAI-1 activity of the control PRP and PRP incubated with each of 6 compounds according to the invention and the reference substance sodium niroprusside (NNP) (50 μM of each for 60 minutes) appear from Table 6.

male rats = conditions: rat, in vivo, po, 20 mg/kg
Procedure: Two tests were carried out on male rats, namely a determination of the "maximum tolerable dose" (MTD) and a test using multiple peroral doses. In addition, a LD50 test was carried out intravenously on mice.
At this test the substances were administered perorally in a dose of 20 mg per kg. as solutions or suspensions once a day for 5 days to groups of 5 animals. Clinical observations were made every day and the above hematological parameters were measured on the third day of the test.

[2] = test system: polymorph nuclear leukocytes (PMNs), c-GMP; test: Stimulation of c-GMP content in PMNs; format: cell-based, human; conditions: 37° C., 10 minutes
Procedure: Compounds according to the invention were tested for their ability to increase the content of cyclic guanosine monophosphate (c-GMP), to inhibit the synthesis of the leukotriene B4 (LTB4), and to inhibit the chemotactical movement of polymorph nuclear leukocytes (PMN). The polymorph nuclear leukocytes play a vital part in the cellular part of the inflammation process. At diseases, such as asthma, the mucuos membrane of the respiratory passages is swollen as a result of an inflammation with a significant infiltration of polymorph nuclear leukocytes (PMN's) in particular. Particularly effective substances for the treatment of asthma are such which in addition to relaxing the musculature in the respiratory passages also have an anti-inflammatory effect on the cellular phase of the inflammatory process, that is inhibiting the leukocyte function.
Isolated human PMNs are incubated at 37° C. for 10 minutes, whereafter the content of cyclic guanosine monophosphate (c-GMP) is measured. Further, the synthesis of the LTB4 is determined after stimulation with Ca-ionophore (A23187) and the chemotaxis (controlled movement) towards FMLP (a substance attracting the polymorph nuclear leukocytes, PMNs) is determined.
Three compounds according to the invention and the reference substance SIN-1 were tested for their ability to stimulate the content of cyclic guanosine monophosphate (c-GMP).

[3] = human PRP, ADP 2 to 4 μM, 3 min incubation, 37° C.

Guanylate cyclase activity ([1]; 0.01 μM): 411 pmole c-GMP/mg prot. × 15 minutes
Guanylate cyclase activity ([1]; 10 μm (so in the source)): 37920 pmole c-GMP/mg prot. × 15 minutes
SMILES: [NH-]c1n[n+](-c2ccccc2C(F)(F)F)no1 [Example 2]

Guanylate cyclase activity ([1]; 0.01 μM): 2499 pmole c-GMP/mg prot. × 15 minutes
Guanylate cyclase activity ([1]; 10 μm (so in the source)): 47529 pmole c-GMP/mg prot. × 15 minutes
SMILES: [NH-]c1n[n+](-c2cccc(C(F)(F)F)c2)no1 [Example 3, 3-(3-trifluoromethylphenyl)-1,2,3,4-oxatriazole-5-imine hydrochloride]

IC50 (blood platelets; [3]): 100 nM
SMILES: N#Cc1cccc(-[n+]2noc([NH-])n2)c1 [Example 7]

Guanylate cyclase activity ([1]; 0.01 μM): 897 pmole c-GMP/mg prot. × 15 minutes
Guanylate cyclase activity ([1]; 10 μm (so in the source)): 64192 pmole c-GMP/mg prot. × 15 minutes
SMILES: N#Cc1ccc(-[n+]2noc([NH-])n2)cc1 [Example 8]
% Inhibition of PAI-1 activity (PAI-1): 44%
PAI-1 activity (PAI-1): 1.83 U/10^8 platelets

SMILES: [NH-]c1n[n+](-c2ccc(Cl)c(C(F)(F)F)c2)no1 [Example 18]
% Inhibition of PAI-1 activity (PAI-1): 40%
PAI-1 activity (PAI-1): 1.93 U/10^8 platelets
IC50 (blood platelets; Homo sapiens): 540 nM

SMILES: [NH-]c1n[n+](-c2cccc(Cl)c2Cl)no1 [Example 21, 3-(2-chloro-3-chlorophenyl)-1,2,3,4-oxatriazole-5-imine]
Clinical observations (male rats): N.R.
Hematological parameters (male rats): N.R.
Side effects (in words) (male rats): no side effects

Guanylate cyclase activity ([1]; 0.01 μM): 383 pmole c-GMP/mg prot. × 15 minutes
Guanylate cyclase activity ([1]; 10 μm (so in the source)): 76915 pmole c-GMP/mg prot. × 15 minutes
SMILES: [NH-]c1n[n+](-c2c(Cl)cccc2Cl)no1 [Example 23]

Guanylate cyclase activity ([1]; 0.01 μM): 2374 pmole c-GMP/mg prot. × 15 minutes
Guanylate cyclase activity ([1]; 10 μm (so in the source)): 59716 pmole c-GMP/mg prot. × 15 minutes
SMILES: [NH-]c1n[n+](-c2ccc(Cl)c(Cl)c2)no1 [Example 24]
% Inhibition of PAI-1 activity (PAI-1): 34%
PAI-1 activity (PAI-1): 2.14 U/10^8 platelets
c-GMP in PMNs ([2]; 1 μM): 391 fmole/10^6 cells
c-GMP in PMNs ([2]; 10 μM): 965 fmole/10^6 cells
c-GMP in PMNs ([2]; 100 μM): 1078 fmole/10^6 cells

SMILES: [NH-]c1n[n+](-c2ccc(Cl)cc2F)no1 [Example 26]
Clinical observations (male rats): N.R.
Hematological parameters (male rats): N.R.
Side effects (in words) (male rats): no side effects

IC50 (blood platelets; [3]): 190 nM
SMILES: O=C([N-]c1n[n+](-c2cccc(C(F)(F)F)c2)no1)c1cccnc1 [Example 34]

SMILES: O=C([N-]c1n[n+](-c2ccc(Cl)cc2Cl)no1)c1cccnc1 [Example 43]
Clinical observations (male rats): N.R.
Hematological parameters (male rats): N.R.
Side effects (in words) (male rats): no side effects

SMILES: O=C([N-]c1n[n+](-c2cccc(C(F)(F)F)c2)no1)c1ccncc1 [Example 50]
IC50 (blood platelets; [3]): 90 nM
Clinical observations (male rats): N.R.
Hematological parameters (male rats): N.R.
Side effects (in words) (male rats): no side effects

Guanylate cyclase activity ([1]; 0.01 μM): 1761 pmole c-GMP/mg prot. × 15 minutes
Guanylate cyclase activity ([1]; 10 μm (so in the source)): 72730 pmole c-GMP/mg prot. × 15 minutes
SMILES: Cc1c(Cl)cccc1-[n+]1noc([N-]C2CCCCC2)n1 [Example 63]

SMILES: O=[N+]([O-])OCC(CO[N+](=O)[O-])O[N+](=O)[O-] [GTN, nitroglycerine, reference compound]
Inhibition of blood platelet aggregation (in words) (blood platelets; ADP, PRP): inactive
IC50 (blood platelets; [3]): 100000 nM
